Test results taken from patent publication EP4122459A1, “COMPOSITION FOR PREVENTING AND TREATING NAIL ALTERATIONS AND DISEASES” (Giuliani S.p.A., priority 2021, dated 2023).

Test system: HACAT cells
Assay: In vitro cell proliferation test (MTT assay) on HACAT cells
Type: cell-based, human
Settings: 48h, highest concentrations: Cocoa 16µg/mL, Zinc 4µg/mL
Text: The MTT assay (3-(4,5-dimethylthiazol-2-yl)-2,5-diphenyltetrazolium bromide) is a colorimetric assay used to evaluate in vitro cell proliferation, as it allows to measure proliferation and cell viability through the evaluation of mitochondrial activity (Mosmann et al., 1983). This method is very useful to measure cell growth following treatment with mitogenic agents, antigenic stimuli, growth factors and for cytotoxicity studies. […] Formazan forms crystals, insoluble in the intracellular environment, to which the membranes are substantially impermeable: the molecule can therefore enter the cell, but the product cannot exit if it has been correctly metabolized, that is if the electron transport chains are still metabolically active. The formazan crystals are subsequently solubilized in dimethyl sulfoxide (DMSO), thus causing the solution to color change from yellow to dark blue-violet. The assay was carried out following the method by Mosmann (1983), with some minor modifications. […] The absorbance of the colored solution was measured using a spectrophotometric reader for microplates (BioTek Instruments Inc., BadFriedrichshall, Germany) at a wavelength of 570 nm (reference wavelength at 630 nm). The data were expressed as a percentage of cell viability compared to control cells (ctr), according to the following formula: % cell viability/ctr = (Abssample/Absctr)*100. […]

**Q.** With Zinc as the substance, how does the “cytotoxic activity on HACAT cells” value read?
**A.** The value was “significant (p<0.05) cytotoxic activity”.
